Results from ChEMBL document CHEMBL3400087, “Modulating Acinetobacter baumannii biofilm development with molecules containing 3,4,5-trimethoxy-N,N',N'-trimethylbenzohydrazide moiety” (Bioorg Med Chem Lett, 2015).
The source made the active and inactive calls. No cut-off for these calls is given here.

Legend:
Acinetobacter baumannii [1] = experiment: Inhibition of Acinetobacter baumannii AB5711 biofilm formation at 200 uM after 24 hrs by crystal violet staining-based static MBEC biofilm assay; format: functional, organism-based
Acinetobacter baumannii [2] = experiment: Inhibition of Acinetobacter baumannii AB5711 biofilm formation assessed as inhibition of cell adherence to surface at 100 uM by crystal violet staining-based modified microtiter biofilm assay; format: functional, organism-based
Acinetobacter baumannii [3] = experiment: Inhibition of Acinetobacter baumannii AB5711 biofilm formation in 14-French silicone urethral catheter at 200 uM measured after overnight incubation by crystal violet staining-based spectrophotometry; format: functional, organism-based
RAW264.7 = experiment: Cytotoxicity against mouse RAW264.7 cells assessed as reduction in cell viability at >200 uM after 24 hrs by trypan blue-staining based microscopic analysis; conditions: raw264.7, 24 h
Acinetobacter baumannii [4] = experiment: Inhibition of Acinetobacter baumannii AB5711 biofilm formation at 100 uM after 24 hrs by crystal violet staining-based static MBEC biofilm assay; format: functional, organism-based

With COc1cc(C(=O)NNC(=O)c2ccc(S(=O)(=O)C3CCC(C)CC3)cc2)cc(OC)c1OC (stereo not given) the inhibition (Acinetobacter baumannii [1]) was “Active”, the inhibition (Acinetobacter baumannii [2]) was “Active” and the inhibition (Acinetobacter baumannii [3]) was “inactive”. For the same molecule, the Activity (RAW264.7) was “Toxic” and the inhibition (Acinetobacter baumannii [4]) was “inactive”.

NNC(=O)c1cc(O)c(O)c(O)c1 was tested, and the inhibition (Acinetobacter baumannii [1]) was “Active”, the inhibition (Acinetobacter baumannii [2]) was “Active” and the inhibition (Acinetobacter baumannii [3]) was “Active”. The Activity (RAW264.7) was “Toxic” and the inhibition (Acinetobacter baumannii [4]) was “inactive”.

In the case of COc1cc(C(=O)NN2c3ccccc3C(C)(C)C(C)(C)c3ccccc32)cc(OC)c1OC, the inhibition (Acinetobacter baumannii [1]) is reported as “Active”, the inhibition (Acinetobacter baumannii [2]) is reported as “Active” and the inhibition (Acinetobacter baumannii [3]) is reported as “Active”. For the same molecule, the Activity (RAW264.7) was “Toxic” and the inhibition (Acinetobacter baumannii [4]) was “inactive”.

With COc1cc(C(=O)N2N=C(C3CC3)CC2(O)C(F)(F)F)cc(OC)c1OC (stereo not given) the inhibition (Acinetobacter baumannii [1]) was “Active”, the inhibition (Acinetobacter baumannii [2]) was “Active” and the inhibition (Acinetobacter baumannii [3]) was “Active”. The Activity (RAW264.7) was “Toxic” and the inhibition (Acinetobacter baumannii [4]) was “inactive”.

For COc1ccccc1C(=O)NNC(=O)c1cc(OC)c(OC)c(OC)c1, the inhibition (Acinetobacter baumannii [1]) was “Active”, the inhibition (Acinetobacter baumannii [2]) was “Active” and the inhibition (Acinetobacter baumannii [3]) was “inactive”. For the same molecule, the Activity (RAW264.7) was “Toxic” and the inhibition (Acinetobacter baumannii [4]) was “inactive”.

In the case of COc1cc(C(=O)NNC(=O)c2cccc(Cl)c2)cc(OC)c1OC, the inhibition (Acinetobacter baumannii [1]) is reported as “Active”, the inhibition (Acinetobacter baumannii [2]) is reported as “Active” and the inhibition (Acinetobacter baumannii [3]) is reported as “Active”. For the same molecule, the Activity (RAW264.7) was “Toxic” and the inhibition (Acinetobacter baumannii [4]) was “inactive”.

In the case of COc1cc(C(=O)NNC(=S)NC(C)(C)C)cc(OC)c1OC, the inhibition (Acinetobacter baumannii [1]) is reported as “Active”, the inhibition (Acinetobacter baumannii [2]) is reported as “Active” and the inhibition (Acinetobacter baumannii [3]) is reported as “Active”. For the same molecule, the Activity (RAW264.7) was “Toxic” and the inhibition (Acinetobacter baumannii [4]) was “inactive”.

In the case of CCNC(=S)NNC(=O)c1cc(OC)c(OC)c(OC)c1, the inhibition (Acinetobacter baumannii [1]) is reported as “Active”, the inhibition (Acinetobacter baumannii [2]) is reported as “Active” and the inhibition (Acinetobacter baumannii [3]) is reported as “Active”. The Activity (RAW264.7) was “Toxic” and the inhibition (Acinetobacter baumannii [4]) was “inactive”.
